US7361633B2, “Screening method and anti-tumor drug candidate obtained therefrom” (Ardana Bioscience Limited, priority 2002, dated 2008)
“Also recorded” adds a separate entry of the source.

Legend:
Assay type in all cases: cell-based, human
BPH-1 cells = experiment: Annexin V-FITC staining of extracellular phosphatidylserine (apoptosis) in BPH-1 cells; settings: 48 h
Description: All twelve panels depict either phase contrast (1, 4, 7, 10), confocal laser microscope (2, 5, 8, 11) or phase contrast/confocal merged images (3, 6, 9, 12). Panels 1 to 3 depict untreated control JEG-3 cells for cells in panels 4 to 6 which have been treated with GnRH I (100 nM) for 24 h. All cells have been exposed while live to an annexin V recombinant protein conjugated to the FITC fluorophore. The annexin V will bind specifically only to phosphatidlyserine (PS) lipids usually only expressed on the intracellular side of the plasma membrane lipid bilayer. An early sign of apoptosis is the translocation of these PS lipids from the intracellular side of the membrane to the outer aspect of the bilayer. […] The cellular levels of caspase 3 and procaspase 3 were assessed by specific immunoblotting of JEG-3 or BPH-1 whole cell (w-c) lysates from cells stimulated continuously with GnRH I for the times depicted. […]
(§1) Thus we have shown that upon continuous GnRH ligand stimulation of either JEG-3 or BPH-1 there is a retardation of cell growth, however we were interested as to whether there was any genuine induction of cellular apoptosis recently reported to occur in several tumour cell lines (Soon et al (2002) J. Clin. Endocrinol. Metab. 87, 4580-4586). […] Initially we measured the effects of GnRH stimulation upon the ultrastructural integrity of the cells plasma membrane. […]

Gαi-type G protein [1] = experiment: Inhibition of forskolin-stimulated cAMP accumulation in JEG-3 cells; settings: for FSK-stimulated intracellular cAMP accumulation after ligand pre-exposure: 100 nM, pre-exposure 10, 30, 60 minutes; for effect of PTX on ligand-mediated inhibition of FSK-stimulated cAMP accumulation: 60 minute pre-exposure, PTX 200 ng/ml 16 h
Description: (§2) In both BPH-1 and JEG-3 cells GnRH and Ant 135-25 can antagonize forskolin (FSK) stimulated intracellular cAMP accumulation. Panels a and b respectively depict the effects of FSK, GnRH I and Ant 135-25 upon intracellular levels of cAMP in BPH-1 and JEG-3 cells measured using a calorimetric Biomol cAMP assay kit. […] Each histogram in panels a to d depicts the mean±s.e. mean of three to four experimental replicates of the cAMP accumulation assay.
(§3) Thus we noted that when cyclic adenosine monophosphate levels (cAMP) were measured using a commercially available […] assay system (Biomol) the ability of forskolin (1 μM in JEG-3 and 3 μM in BPH-1, sufficient to give a 50% Rmax response in each case) was blunted with extended cellular pre-treatment times (10 to 60 minutes) with either 100 nM GnRH I or Ant 135-25 (FIG. 9, panel a-BPH, panel b-JEG). […] Therefore it appears that both ligands can efficiently activate the adenylate cyclase inhibitory activity of Gαi in both cell models tested.

JEG-3 cells = experiment: Annexin V-FITC staining of extracellular phosphatidylserine (apoptosis) in JEG-3 cells; settings: for extracellular annexin-V-reactive phosphatidylserine: 100 nM
Description: All twelve panels depict either phase contrast (1, 4, 7, 10), confocal laser microscope (2, 5, 8, 11) or phase contrast/confocal merged images (3, 6, 9, 12). Panels 1 to 3 depict untreated control JEG-3 cells for cells in panels 4 to 6 which have been treated with GnRH I (100 nM) for 24 h. All cells have been exposed while live to an annexin V recombinant protein conjugated to the FITC fluorophore. The annexin V will bind specifically only to phosphatidlyserine (PS) lipids usually only expressed on the intracellular side of the plasma membrane lipid bilayer. An early sign of apoptosis is the translocation of these PS lipids from the intracellular side of the membrane to the outer aspect of the bilayer. […] Panels 10 to 12 depict cells exposed to GnRH I for 48 h while panels 7 to 9 serve as unstimulated contemporaneous controls. […] The cellular levels of caspase 3 and procaspase 3 were assessed by specific immunoblotting of JEG-3 or BPH-1 whole cell (w-c) lysates from cells stimulated continuously with GnRH I for the times depicted.
A similar experimental approach was employed for the transfer of this study to BPH-1 cells, however as the MAPK under study in these cells was p38α much lower dose of SB203580 (1 μM) could be employed as the compound has a much greater inhibitory potency against p38 compared to JNK.
as §1, with “membrane. A well documented early event in apoptosis is a reversal in the polarity of many plasma membrane molecules such as phosphatidylserine (PS). At an early stage of cellular apoptosis there is a significant translocation of PS from the inner to the outer envelope of the plasma membrane.” for “membrane.”

Gαi-type G protein [2] = experiment: Inhibition of forskolin-stimulated cAMP accumulation in BPH-1 cells; settings: for FSK-stimulated intracellular cAMP accumulation after ligand pre-exposure: 100 nM, pre-exposure 10, 30, 60 minutes; for effect of PTX on ligand-mediated inhibition of FSK-stimulated cAMP accumulation: 60 minute pre-exposure, PTX 200 ng/ml 16 h
Description: as §2, §3

Compound | extracellular annexin-V-reactive phosphatidylserine (BPH-1 cells) | FSK-stimulated intracellular cAMP accumulation after ligand pre-exposure (Gαi-type G protein [1]) | effect of PTX on ligand-mediated inhibition of FSK-stimulated cAMP accumulation (Gαi-type G protein [1]) | extracellular annexin-V-reactive phosphatidylserine (JEG-3 cells; 24 h) | extracellular annexin-V-reactive phosphatidylserine (JEG-3 cells; 48 h) | FSK-stimulated intracellular cAMP accumulation after ligand pre-exposure (Gαi-type G protein [2]) | effect of PTX on ligand-mediated inhibition of FSK-stimulated cAMP accumulation (Gαi-type G protein [2]) | effect on GnRH I-induced annexin V-FITC staining (pro-apoptotic state) (BPH-1 cells; 1 μM SB203580 with GnRH I) | effect on GnRH I-induced annexin V-FITC staining (pro-apoptotic state) (JEG-3 cells; 20 μM SB203580 with 100 nM GnRH I, 48 h)
GnRH I: Gonadotropin-Releasing Hormone, a decapeptide; the original form of GnRH, re-named GnRH I | Identical results; also recorded: significant induction of annexin-V-FITC reactivity on the outer plasma membrane envelope | significantly reduced; also recorded: blunted | can be specifically inhibited with a 16 h pre-incubation of the cells with 200 ng/ml of PTX; also recorded: attenuated by a 16 h pre-treatment with 200 ng/ml PTX | no significant expression of annexin-V-reactive PS on the extracellular surface of the plasma membrane | significant expression of extracellular annexin-V-reactive PS; also recorded: cells begin to become anti-annexin V-FITC immunoreactive; also recorded: considerable amount of external membrane annexin-V-reactive PS | significantly reduced; also recorded: blunted | can be specifically inhibited with a 16 h pre-incubation of the cells with 200 ng/ml of PTX; also recorded: attenuated by a 16 h pre-treatment with 200 ng/ml PTX | – | –
Ac-D-Nal(2)-D-4-ClPhe-D-Pal-Ser-1-MePal-D-IsopropylLys-Leu-IsopropylLys-Pro-D-AlaNH2 [Ant 135-25] | – | significantly reduced; also recorded: blunted | can be specifically inhibited with a 16 h pre-incubation of the cells with 200 ng/ml of PTX; also recorded: attenuated by a 16 h pre-treatment with 200 ng/ml PTX | – | – | significantly reduced; also recorded: blunted | can be specifically inhibited with a 16 h pre-incubation of the cells with 200 ng/ml of PTX; also recorded: attenuated by a 16 h pre-treatment with 200 ng/ml PTX | – | –
C[S+]([O-])c1ccc(-c2nc(-c3ccncc3)c(-c3ccc(F)cc3)[nH]2)cc1 (stereo not shown) [SB203580] | – | – | – | – | – | – | – | prevented GnRH from inducing a pro-apoptotic state in the BPH-1 cells; also recorded: almost completely abrogated | significant reduction in extent of cells entering a pro-apoptotic state; also recorded: significant reduction in the degree of annexin-V-FITC staining
